Experimental data from US11046728B2, “Neuroactive steroids, compositions, and uses thereof” (Sage Therapeutics, Inc., priority 2013, dated 2021).
pIC50: −log10 of the molar value.

Experiments:
[1] = molecular target: TBPS binding, rat brain cortical membranes in the presence of 5 μM GABA; experiment: 35S-TBPS displacement (steroid inhibition of TBPS binding); conditions: read-out: 35S-TBPS Radioligand Displacement (IC50)
Description: TBPS binding assays using rat brain cortical membranes in the presence of 5 μM GABA has been described (Gee et al, J. Pharmacol. Exp. Then 1987, 241, 346-353; Hawkinson et al, Mol. Pharmacol. 1994, 46, 977-985). Briefly, cortices are rapidly removed following decapitation of carbon dioxide-anesthetized Sprague-Dawley rats (200-250 g). The cortices are homogenized in 10 volumes of ice-cold 0.32 M sucrose using a glass/teflon homogenizer and centrifuged at 1500×g for 10 min at 4° C. The resultant supernatants are centrifuged at 10,000×g for 20 min at 4° C. to obtain the P2 pellets. The P2 pellets are resuspended in 200 mM NaCl/50 mM Na—K phosphate pH 7.4 buffer and centrifuged at 10,000×g for 10 min at 4° C. This washing procedure is repeated twice and the pellets are resuspended in 10 volumes of buffer. Aliquots (100 μL) of the membrane suspensions are incubated with 3 nM [^35S]-TBPS and 5 μL, aliquots of test drug dissolved in dimethyl sulfoxide (DMSO) (final 0.5%) in the presence of 5 μM GABA. The incubation is brought to a final volume of 1.0 mL with buffer. Nonspecific binding is determined in the presence of 2 μM unlabeled TBPS and ranged from 15 to 25%. Following a 90 min incubation at room temp, the assays are terminated by filtration through glass fiber filters (Schleicher and Schuell No. 32) using a cell harvester (Braudel) and rinsed three times with ice-cold buffer. Filter bound radioactivity is measured by liquid scintillation spectrometry. Non-linear curve fitting of the overall data for each drug averaged for each concentration is done using Prism (GraphPad). […] The concentration of test compound producing 50% inhibition (IC50) of specific binding and the maximal extent of inhibition (Imax) are determined for the individual experiments with the same model used for the overall data and then the means±SEMs of the individual experiments are calculated.
Various compounds are or can be screened to determine their potential as modulators of ^35S-TBPS binding in vitro. These assays are or can be performed in accordance with the above discussed procedures.

male Sprague Dawley rats = experiment: Loss of righting reflex in rats; assay type: in vivo, rat; conditions: intravenous bolus 5 mg/kg
Description: The plasma pharmacokinetics and a qualitative assessment of sedation were obtained in male Sprague Dawley rats according to the following procedure. Rats were dosed by intravenous bolus dose (60 seconds) via the foot dorsal vein at 5 mg/kg in an appropriate vehicle. In order to assess sedation, rats were gently restrained by hand to a lateral position for dose administration. […] If the animal was unable to return to an upright position, the time was recorded as the onset of loss of righting reflex (LRR). […] Sluggish or incomplete righting twice consecutively within a 30 second interval qualifies as a loss of righting reflex. After onset of LRR, animals were assessed every 5 minutes in the same manner. Recovery of righting reflex is defined as the ability of a rat to right itself completely within 20 seconds of being placed in dorsal recumbency. The duration of LRR is defined as the time interval between LRR and the return of righting reflex.

GABA receptor α1β2γ2 = molecular target: T1, GABA receptor α1β2γ2 (Homo sapiens, UniProt P14867+P47870); experiment: Patch clamp electrophysiology, Qpatch in Ltk cells; assay type: cell-based; conditions: 10 μM test article, GABA EC20 = 2 μM, read-out: GABA (α1β2γ2) Qpatch in Ltk, % efficacy at 10 μM
T1 construct: expressed in transfected cells; host or cells: LTK cells, stably transfected
T1 sequence (P14867 28-456): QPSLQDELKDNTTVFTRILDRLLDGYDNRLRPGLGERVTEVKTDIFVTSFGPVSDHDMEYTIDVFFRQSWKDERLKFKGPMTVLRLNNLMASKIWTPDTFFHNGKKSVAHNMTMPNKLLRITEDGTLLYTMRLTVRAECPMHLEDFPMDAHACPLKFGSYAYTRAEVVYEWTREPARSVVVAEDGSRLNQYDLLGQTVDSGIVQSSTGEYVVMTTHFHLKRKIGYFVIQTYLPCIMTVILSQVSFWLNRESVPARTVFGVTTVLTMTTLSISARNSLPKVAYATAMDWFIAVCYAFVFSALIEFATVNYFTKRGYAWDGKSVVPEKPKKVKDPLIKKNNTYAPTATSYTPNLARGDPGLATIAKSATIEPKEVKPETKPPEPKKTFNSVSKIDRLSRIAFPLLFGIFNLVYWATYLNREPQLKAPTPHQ
T1 sequence (P47870 25-512 limits assumed): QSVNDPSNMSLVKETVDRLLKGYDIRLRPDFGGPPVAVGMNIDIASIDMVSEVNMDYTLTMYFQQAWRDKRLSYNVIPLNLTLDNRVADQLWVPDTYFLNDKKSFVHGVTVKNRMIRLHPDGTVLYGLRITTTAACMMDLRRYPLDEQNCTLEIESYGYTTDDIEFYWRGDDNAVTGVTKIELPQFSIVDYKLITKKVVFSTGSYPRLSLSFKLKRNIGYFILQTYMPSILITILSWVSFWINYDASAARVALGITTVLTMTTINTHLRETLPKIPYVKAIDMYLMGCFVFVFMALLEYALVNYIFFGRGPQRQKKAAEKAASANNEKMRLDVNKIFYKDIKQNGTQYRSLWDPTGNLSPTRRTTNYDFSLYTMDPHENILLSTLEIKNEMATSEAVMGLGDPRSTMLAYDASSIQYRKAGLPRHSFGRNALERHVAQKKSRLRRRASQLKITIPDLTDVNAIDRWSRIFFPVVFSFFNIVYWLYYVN
T1 sequence (P18507 40-475 partner): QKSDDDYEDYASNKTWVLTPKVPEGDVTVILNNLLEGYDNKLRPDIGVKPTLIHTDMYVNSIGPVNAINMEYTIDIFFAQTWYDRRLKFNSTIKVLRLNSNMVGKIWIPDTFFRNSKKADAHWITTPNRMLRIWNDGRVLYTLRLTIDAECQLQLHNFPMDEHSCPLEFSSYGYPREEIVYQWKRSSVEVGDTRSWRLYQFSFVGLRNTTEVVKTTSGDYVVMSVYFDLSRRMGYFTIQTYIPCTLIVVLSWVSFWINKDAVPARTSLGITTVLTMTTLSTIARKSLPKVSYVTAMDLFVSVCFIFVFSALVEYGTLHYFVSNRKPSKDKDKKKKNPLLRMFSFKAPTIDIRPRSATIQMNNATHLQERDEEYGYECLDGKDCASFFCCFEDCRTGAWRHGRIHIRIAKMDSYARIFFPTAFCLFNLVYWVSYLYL

GABA receptor α4β3δ = molecular target: T2, GABA receptor α4β3δ (Homo sapiens, UniProt P28472+P48169); experiment: Patch clamp electrophysiology, manual patch in CHO cells; assay type: cell-based; conditions: 10 μM test article, GABA EC20 = 2 μM, read-out: GABA (α4β3δ) Manual patch in CHO, % efficacy at 10 μM
T2 construct: expressed in transfected cells; host or cells: CHO cells, transiently transfected
T2 sequence (P48169 36-554): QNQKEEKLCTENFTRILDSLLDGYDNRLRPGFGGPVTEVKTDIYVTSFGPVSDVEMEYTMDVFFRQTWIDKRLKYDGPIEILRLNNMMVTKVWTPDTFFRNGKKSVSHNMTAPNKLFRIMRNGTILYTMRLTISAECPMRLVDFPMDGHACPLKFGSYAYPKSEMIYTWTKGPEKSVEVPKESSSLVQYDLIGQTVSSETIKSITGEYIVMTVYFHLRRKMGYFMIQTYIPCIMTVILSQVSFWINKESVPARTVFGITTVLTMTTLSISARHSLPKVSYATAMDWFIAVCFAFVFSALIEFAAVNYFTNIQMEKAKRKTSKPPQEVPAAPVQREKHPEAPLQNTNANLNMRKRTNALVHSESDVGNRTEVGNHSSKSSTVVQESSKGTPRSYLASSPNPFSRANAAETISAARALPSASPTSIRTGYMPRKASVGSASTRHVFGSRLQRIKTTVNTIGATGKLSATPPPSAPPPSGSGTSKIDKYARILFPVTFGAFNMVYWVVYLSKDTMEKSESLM
T2 sequence (P28472 26-473): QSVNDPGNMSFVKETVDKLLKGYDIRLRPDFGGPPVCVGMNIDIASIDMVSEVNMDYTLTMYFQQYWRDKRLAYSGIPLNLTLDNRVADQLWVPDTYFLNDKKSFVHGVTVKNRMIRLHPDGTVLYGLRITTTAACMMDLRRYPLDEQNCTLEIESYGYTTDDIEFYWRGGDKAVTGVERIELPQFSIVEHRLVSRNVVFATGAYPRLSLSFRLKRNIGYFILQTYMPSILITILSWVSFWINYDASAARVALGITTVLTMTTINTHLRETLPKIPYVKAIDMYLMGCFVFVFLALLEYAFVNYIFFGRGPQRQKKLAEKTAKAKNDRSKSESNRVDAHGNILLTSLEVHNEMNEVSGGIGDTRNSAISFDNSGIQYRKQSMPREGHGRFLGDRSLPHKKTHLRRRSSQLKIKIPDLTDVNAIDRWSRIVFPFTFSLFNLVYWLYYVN
T2 sequence (O14764 25-452 partner): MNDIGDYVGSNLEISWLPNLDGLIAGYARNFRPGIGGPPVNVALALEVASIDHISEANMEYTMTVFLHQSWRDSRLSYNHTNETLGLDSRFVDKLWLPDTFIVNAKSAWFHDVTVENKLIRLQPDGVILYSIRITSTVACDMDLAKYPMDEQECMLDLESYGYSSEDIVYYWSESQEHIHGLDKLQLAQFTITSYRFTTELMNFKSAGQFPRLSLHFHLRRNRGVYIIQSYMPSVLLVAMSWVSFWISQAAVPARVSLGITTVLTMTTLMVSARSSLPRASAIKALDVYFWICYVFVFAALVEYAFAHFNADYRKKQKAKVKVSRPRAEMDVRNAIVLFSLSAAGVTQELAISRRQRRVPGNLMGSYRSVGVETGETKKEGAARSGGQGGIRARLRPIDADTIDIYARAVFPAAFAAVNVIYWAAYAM

male beagle dogs = experiment: Duration of lateral recumbence in dogs; assay type: in vivo, dog; conditions: intravenous bolus, administered at 5 mg/kg
Description: The plasma pharmacokinetics and a qualitative assessment of sedation were obtained in male beagle dogs according to the following procedure. Dogs were dosed by intravenous bolus dose (60 seconds) via the cephalic vein at doses ranging from 2 to 5 mg/kg in an appropriate vehicle. In order to assess sedation, dogs were gently restrained for dose administration. If decreased muscle tone, limb weakness, or head drop was observed during dose administration, onset of lateral recumbence was recorded. […] Sluggish or incomplete righting to the sternal position qualifies as lateral recumbence. After onset of lateral recumbence, animals were assessed every 5 minutes in the same manner. The duration of lateral recumbence was recorded as the time interval between onset of lateral recumbence and the return to sternal position.

Compound	pIC50 [1]	Duration of LRR (min) (male Sprague Dawley rats)	Emax at 10 µM (GABA receptor α1β2γ2)	Emax at 10 µM (GABA receptor α4β3δ)	Duration of Lateral Recumbence (min) (male beagle dogs)
CO[C@H]1C[C@]2(C)[C@@H](C#N)CC[C@H]2[C@@H]2CC[C@H]3C[C@H](O)CC[C@]3(C)[C@H]21 [Compound 31]	7.30 to 8.00	B (“B” indicates the duration of LRR to be 10-20 minutes)	> 500%	100 to 500%	A (“A” indicates the duration to be >20 minutes)
CCCO[C@H]1C[C@@]2(C)[C@@H](CC[C@@H]3[C@@H]2CC[C@]2(C)[C@@H](C#N)CC[C@@H]32)C[C@@H]1O [Compound 16]	> 8.00	C (“C” indicates the duration of LRR to be >20 minutes)	> 500%	100 to 500%	
CCO[C@H]1C[C@@]2(C)[C@@H](CC[C@H]3[C@@H]4CC[C@H](C#N)[C@@]4(C)CC(=O)[C@@H]32)C[C@@H]1O [Compound 19]	7.00 to 7.30	B (“B” indicates the duration of LRR to be 10-20 minutes)	> 500%		A (“A” indicates the duration to be >20 minutes)
CO[C@H]1C[C@@]2(C)[C@@H](CC[C@H]3[C@@H]4CC[C@H](C#N)[C@@]4(C)CC(=O)[C@@H]32)C[C@@H]1O [Compound 3]	< 6.30	A (“A” indicates the duration of LRR to be <10 min)	100 to 500%	100 to 500%	A (“A” indicates the duration to be >20 minutes)
